From ChEMBL document CHEMBL4339244, “Clavariopsins C-I, Antifungal Cyclic Depsipeptides from the Aquatic Hyphomycete Clavariopsis aquatica” (J Nat Prod, 2019)
pIC50: −log10 of the molar value. Calls of active or inactive are those of the source. No cut-off for these calls is given here.

Key:
[1] = system: Botrytis cinerea; assay: Antifungal activity against Botrytis cinerea assessed as inhibition of microbial growth by measuring minimum inhibitory dose per disc inducing visually distinct inhibition zone between the paper disk and colony front by paper disk based assay; type: functional
[2] = system: Pyricularia oryzae; assay: Antifungal activity against Magnaporthe oryzae assessed as inhibition of microbial growth by measuring minimum inhibitory dose per disc inducing visually distinct inhibition zone between the paper disk and colony front by paper disk based assay; type: functional, organism-based
[3] = system: Colletotrichum orbiculare; assay: Antifungal activity against Colletotrichum orbiculare assessed as inhibition of microbial growth by measuring minimum inhibitory dose per disc inducing visually distinct inhibition zone between the paper disk and colony front by paper disk based assay; type: functional, organism-based
[4] = system: Fusarium oxysporum; assay: Antifungal activity against Fusarium oxysporum assessed as inhibition of microbial growth by measuring minimum inhibitory dose per disc inducing visually distinct inhibition zone between the paper disk and colony front by paper disk based assay; type: functional, organism-based
[5] = system: Alternaria alternata; assay: Antifungal activity against Alternaria alternata assessed as inhibition of microbial growth by measuring minimum inhibitory dose per disc inducing visually distinct inhibition zone between the paper disk and colony front by paper disk based assay; type: functional
[6] = system: Aspergillus niger; assay: Antifungal activity against Aspergillus niger assessed as inhibition of microbial growth by measuring minimum inhibitory dose per disc inducing visually distinct inhibition zone between the paper disk and colony front by paper disk based assay; type: functional, organism-based
[7] = system: Aspergillus niger; assay: Induction of hyphal malformation in Aspergillus niger assessed as minimum effective dose per disc results in obvious morphological changes incubated for 16 hrs by phase contrast microscopy; type: functional
[8] = system: HeLa S3; assay: Cytotoxicity in human HeLaS3 cells assessed as reduction in cell viability incubated for 48 hrs by MTT assay; type: functional, cell-based; details: HeLa S3, 48 h

Structure (SMILES)	MID [1]	inhibition [2]	inhibition [3]	inhibition [4]	MID [5]	inhibition [6]	MED [7]	pIC50 [8]
CC[C@H](C)[C@H]1C(=O)NCC(=O)N(C)[C@@H](C(C)C)C(=O)N[C@@H](Cc2ccc(OC)cc2)C(=O)O[C@H](C(C)C)C(=O)N2CCCC[C@H]2C(=O)N[C@@H](C(C)C)C(=O)N[C@@H](C(C)C)C(=O)N(C)[C@@H](CC(=O)O)C(=O)N(C)[C@@H]([C@@H](C)CC)C(=O)N1C	0.01 to 0.3 µg	Active	Active	Active	0.03 to 0.3 µg	Active	3 µg	< 5.00
CC[C@H](C)[C@H]1C(=O)NCC(=O)N(C)[C@@H](C(C)C)C(=O)N[C@@H](Cc2ccc(OC)cc2)C(=O)O[C@H](C(C)C)C(=O)N2CCCC[C@H]2C(=O)N(C)[C@@H](C(C)C)C(=O)N[C@@H](CC(C)C)C(=O)N(C)[C@@H](CC(=O)O)C(=O)N(C)[C@@H]([C@@H](C)CC)C(=O)N1C	0.01 to 0.3 µg	Active	Active	Active	0.03 to 0.3 µg	Active	3 µg	< 5.00
CC[C@H](C)[C@H]1C(=O)NCC(=O)N(C)[C@@H](C(C)C)C(=O)N[C@@H](Cc2ccc(OC)cc2)C(=O)O[C@H](C(C)C)C(=O)N2CCCC[C@H]2C(=O)N(C)[C@@H](C(C)C)C(=O)N[C@@H](C(C)C)C(=O)N(C)[C@@H](CC(=O)O)C(=O)N(C)[C@@H]([C@@H](C)CC)C(=O)N1C	0.01 to 0.3 µg	Active	Active	Active	0.01 µg	Active	0.3 µg	< 5.00
CC[C@H](C)[C@H]1C(=O)NCC(=O)N(C)[C@@H](C(C)C)C(=O)N[C@@H](Cc2ccc(OC)cc2)C(=O)O[C@H](C(C)C)C(=O)N2CCC[C@H]2C(=O)N(C)[C@@H](C(C)C)C(=O)N[C@@H](C(C)C)C(=O)N(C)[C@@H](CC(=O)O)C(=O)N(C)[C@@H]([C@@H](C)CC)C(=O)N1C	0.01 to 0.3 µg	Active	Active	Active	0.03 to 0.3 µg	Active	0.3 µg	< 5.00
CC[C@H](C)[C@H]1C(=O)NCC(=O)N(C)[C@@H](C(C)C)C(=O)N[C@@H](Cc2ccc(OC)cc2)C(=O)O[C@H](C(C)C)C(=O)N2CCCC[C@H]2C(=O)N(C)[C@@H](C(C)C)C(=O)N[C@@H](C(C)C)C(=O)N(C)[C@@H](CC(=O)O)C(=O)N(C)[C@@H](C(C)C)C(=O)N1C	0.01 to 0.3 µg	Active	Active	Active	0.01 µg	Active	0.3 µg	< 5.00
CC[C@H](C)[C@H]1C(=O)NCC(=O)N(C)[C@@H](C(C)C)C(=O)N[C@@H](Cc2ccc(OC)cc2)C(=O)O[C@H](C(C)C)C(=O)N2CCCC[C@H]2C(=O)N(C)[C@@H](C(C)C)C(=O)N[C@@H](C(C)C)C(=O)N(C)[C@@H](CC(=O)O)C(=O)N(C)[C@@H](CC(C)C)C(=O)N1C	0.01 to 0.3 µg	Active	Active	Active	0.03 to 0.3 µg	Active	0.3 µg	< 5.00
CC[C@H](C)[C@@H]1NC(=O)[C@H]([C@@H](C)CC)N(C)C(=O)[C@H](CC(=O)O)N(C)C(=O)[C@H](C(C)C)NC(=O)[C@H](C(C)C)N(C)C(=O)[C@@H]2CCCCN2C(=O)[C@@H](C(C)C)OC(=O)[C@H](Cc2ccc(OC)cc2)NC(=O)[C@H](C(C)C)N(C)C(=O)CNC1=O	0.01 to 0.3 µg	Active	Active	Active	0.01 µg	Active	0.3 µg	< 5.00
CC[C@H](C)[C@H]1C(=O)N(C)[C@@H](CC(C)C)C(=O)NCC(=O)N(C)[C@@H](C(C)C)C(=O)N[C@@H](Cc2ccc(OC)cc2)C(=O)O[C@H](C(C)C)C(=O)N2CCCC[C@H]2C(=O)N(C)[C@@H](C(C)C)C(=O)N[C@@H](C(C)C)C(=O)N(C)[C@@H](CC(=O)O)C(=O)N1C	0.01 to 0.3 µg	Active	Active	Active	0.03 to 0.3 µg	Active	0.3 µg	< 5.00
CC[C@H](C)[C@H]1C(=O)N(C)[C@@H](C(C)C)C(=O)NCC(=O)N(C)[C@@H](C(C)C)C(=O)N[C@@H](Cc2ccc(OC)cc2)C(=O)O[C@H](C(C)C)C(=O)N2CCCC[C@H]2C(=O)N(C)[C@@H](C(C)C)C(=O)N[C@@H](C(C)C)C(=O)N(C)[C@@H](CC(=O)O)C(=O)N1C	0.01 to 0.3 µg	Active	Active	Active	0.03 to 0.3 µg	Active	0.3 µg	< 5.00
